In PMC11250742, “Preclinical evaluation of CXCR4 peptides for targeted radionuclide therapy in glioblastoma” (EJNMMI Radiopharmacy and Chemistry, 2024) one finds cell viability data, which are given here for one molecule.

Where a SMILES comes first, the peptide text is derived from it. Bridges are numbered along the chain shown (N, C = ends). [ ]: non-standard residue; d: D form. The star is where a group is joined. DOTA = O=C(O)CN1CCN(CC(=O)O)CCN(CC(=O)*)CCN(CC(=O)O)CC1; 2Nal = N[C@@H](Cc1ccc2ccccc2c1)C(=O)O; Cit = NC(=O)NCCC[C@H](N)C(=O)O

In this experiment the test system is U87-CXCR4 + cells. The experiment can be described thus: MTS cell viability assay. The following applies: 2 h. Type of experiment: cell-based. On the procedure: Cell viability assays were performed using increasing activity concentrations of the radiolabelled peptides (1 to 20 MBq/mL), incubated with U87-CXC4 + cells for four hours at 37 °C, 5% CO2. After the incubation period, cells were washed twice with PBS and replenished with complete media. After five and seven days of treatment, the cell media was removed and MTS (3-(4,5-dimethylthiazol-2-yl)-5-(3-carboxymethoxyphenyl)-2-(4-sulfophenyl)-2 H-tetrazolium) reagent added, prepared according to manufacturer’s instructions (CellTiter 96® AQueous One Solution Cell Proliferation Assay, Promega, Wisconsin, United States). To determine the effect of the radiation originating from unbound radiolabelled peptides, cells were treated with equivalent activity concentrations of [^177Lu]Lu-DTPA. Triton X-100 (0.1%) was used as a positive control. Vehicle includes the NaOAc radiolabeling buffer at the concentration used for the 20 MBq/mL peptide solutions. The cells were incubated for 0.5–1 h with the MTS reagent at 37 °C, 5% CO2. Absorbance was measured at 490 nm using a BioTek Synergy H1 plate reader (Agilent Technologies, Mechelen, Belgium). Cell viability was normalised to the vehicle and calculated as percentage of cell viability.
On the technique in general: Tetrazolium dyes change colour on reduction, which living cells bring about.

A word on the cell viability: it is a read-out of living cells in per cent, often relative to untreated cells. Take `N=C(N)NCCC[C@@H]1NC(=O)[C@@H]2CSSC[C@H](NC(=O)[C@H](Cc3ccc4ccccc4c3)NC(=O)[C@H](CCCNC(=N)N)NC(=O)[C@H](CCCNC(=N)N)NC(=O)[C@H]3CCCN3C(=O)CNC1=O)C(=O)N[C@@H](Cc1ccc(O)cc1)C(=O)N[C@@H](CCC(N)=O)C(=O)N[C@@H](CCCCNC(=O)CN1CCN(CC(=O)O)CCN(CC(=O)O)CCN(CC(=O)O)CC1)C(=O)N1CCC[C@@H]1C(=O)N1CCC[C@H]1C(=O)N[C@@H](Cc1ccc(O)cc1)C(=O)N[C@@H](CCCNC(=N)N)C(=O)N[C@@H](CCCNC(N)=O)C(=O)N2` [[^177Lu]Lu-DOTA-POL3026, metal not drawn] (cyclo(RR[2Nal]CYQK(DOTA)[dP]PYR[Cit]CRG[dP]); disulfide 4-13): the cell viability came out at 52.3 ± 9.9%.
